Where two headings read alike, the source gives them in different places.
How the values were obtained:
[1] = target: human Bruton's Tyrosine Kinase (Btk) (Homo sapiens (Human), UniProt Q06187); assay: Recombinant Human Bruton's Tyrosine Kinase (Btk) Inhibition Assay (HTRF KinEASE-TK); format: biochemical; conditions: 20 ng/ml rhBtk, 77 μM ATP (KM), 1 μM TK-Biotin substrate, 90 min; read-out: hBTK IC50
mouse splenocytes = assay: Inhibition of B Cell Activation as Measured by CD69 Expression in Mouse Splenocytes; format: cell-based; conditions: Splenocyte
In short: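 Total mouse splenocytes pre-incubated with compounds (half-log dilutions; DMSO 200× stocks from 2 mM) 30 min at 37 °C, then stimulated with 3 ug/mL anti-mouse IgM for 18-20 hrs. CD69+ cells within CD19+ B cells quantified by flow cytometry; IC50 from variable-slope sigmoid dose-response fit.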

[2] = C57/BL6 splenocytes, 3 ug/mL goat anti-mouse IgM, 18-20 hrs, CD69+ve cells within CD19, read-out: Mouse spleenocyte IC50

Chain of human Bruton's Tyrosine Kinase (Btk) (Q06187 whole entry): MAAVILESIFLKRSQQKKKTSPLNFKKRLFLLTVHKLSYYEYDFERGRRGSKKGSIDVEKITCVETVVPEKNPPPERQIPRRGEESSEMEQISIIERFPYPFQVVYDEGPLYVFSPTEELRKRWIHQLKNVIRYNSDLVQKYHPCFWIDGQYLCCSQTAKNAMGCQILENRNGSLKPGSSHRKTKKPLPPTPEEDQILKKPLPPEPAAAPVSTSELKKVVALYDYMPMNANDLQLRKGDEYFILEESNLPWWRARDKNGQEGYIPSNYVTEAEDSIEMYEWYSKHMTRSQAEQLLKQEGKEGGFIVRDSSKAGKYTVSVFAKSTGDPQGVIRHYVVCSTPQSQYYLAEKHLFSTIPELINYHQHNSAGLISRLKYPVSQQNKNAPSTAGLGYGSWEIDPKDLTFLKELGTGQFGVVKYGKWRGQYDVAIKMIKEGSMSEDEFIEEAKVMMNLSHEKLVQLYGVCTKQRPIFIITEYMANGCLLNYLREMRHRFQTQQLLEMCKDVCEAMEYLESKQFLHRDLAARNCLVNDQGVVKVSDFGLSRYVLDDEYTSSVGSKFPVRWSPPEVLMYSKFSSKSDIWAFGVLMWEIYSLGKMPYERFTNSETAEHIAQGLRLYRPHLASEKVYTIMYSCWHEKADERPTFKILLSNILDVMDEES

Row | Compound | IC50 [1] [nM] | IC50 (mouse splenocytes; [2]) [nM] | IC50 (mouse splenocytes; Mus musculus, read-out: Mouse spleenocyte IC50 (nM)) [nM]
1 | CC(C)N1CC(n2cnc(-c3cc4c(-c5cccc(N6CCOc7cc(C8CC8)ccc7C6=O)c5CO)ccnc4[nH]3)c2)C1 [Example P-9, 8-cyclopropyl-4-[2-(hydroxymethyl)-3-[2-[1-(1-isopropylazetidin-3-yl)imidazol-4-yl]-1H-pyrrolo[2,3-b]pyridin-4-yl]phenyl]-2,3-dihydro-1,4-benzoxazepin-5-one] | 7 | 104 | 
2 | CN(C)C(=O)N1CC=C(c2cc3c(-c4cccc(N5CCOc6cc(C(C)(C)O)ccc6C5=O)c4CO)ccnc3[nH]2)CC1 [Example P-10, 4-[4-[2-(hydroxymethyl)-3-[8-(1-hydroxy-1-methyl-ethyl)-5-oxo-2,3-dihydro-1,4-benzoxazepin-4-yl]phenyl]-1H-pyrrolo[2,3-b]pyridin-2-yl]-N,N-dimethyl-3,6-dihydro-2H-pyridine-1-carboxamide] | 6 | 94 | 
3 | CN(C)C(=O)N1CC=C(c2cc3c(-c4cccc(N5CCOc6cc(C7CC7)cc(F)c6C5=O)c4CO)ccnc3[nH]2)CC1 [Example P-14, 4-[4-[3-(8-cyclopropyl-6-fluoro-5-oxo-2,3-dihydro-1,4-benzoxazepin-4-yl)-2-(hydroxymethyl)phenyl]-1H-pyrrolo[2,3-b]pyridin-2-yl]-N,N-dimethyl-3,6-dihydro-2H-pyridine-1-carboxamide] | 1 | 5.8 | 
4 | CC1(O)CN(C(=O)N2CC=C(c3cc4c(-c5cccc(N6CCOc7cc(C8CC8)cc(F)c7C6=O)c5CO)ccnc4[nH]3)CC2)C1 [Example P-15, 8-cyclopropyl-6-fluoro-4-[2-(hydroxymethyl)-3-[2-[1-(3-hydroxy-3-methyl-azetidine-1-carbonyl)-3,6-dihydro-2H-pyridin-4-yl]-1H-pyrrolo[2,3-b]pyridin-4-yl]phenyl]-2,3-dihydro-1,4-benzoxazepin-5-one] | 1 | 14.7 | 
5 | O=C(N1CC=C(c2cc3c(-c4cccc(N5CCOc6cc(C7CC7)cc(F)c6C5=O)c4CO)ccnc3[nH]2)CC1)N1CCOCC1 [Example P-18, 8-cyclopropyl-6-fluoro-4-[2-(hydroxymethyl)-3-[2-[1-(morpholine-4-carbonyl)-3,6-dihydro-2H-pyridin-4-yl]-1H-pyrrolo[2,3-b]pyridin-4-yl]phenyl]-2,3-dihydro-1,4-benzoxazepin-5-one] | 1.7 | 5.4 | 
6 | CCN(CC)C(=O)N1CC=C(c2cc3c(-c4cccc(N5CCOc6cc(C7CC7)cc(F)c6C5=O)c4CO)ccnc3[nH]2)CC1 [Example P-19, 4-[4-[3-(8-cyclopropyl-6-fluoro-5-oxo-2,3-dihydro-1,4-benzoxazepin-4-yl)-2-(hydroxymethyl)phenyl]-1H-pyrrolo[2,3-b]pyridin-2-yl]-N,N-diethyl-3,6-dihydro-2H-pyridine-1-carboxamide] | 14.6 | 20 | 
7 | O=C1c2c(F)cc(C3CC3)cc2OCCN1c1cccc(-c2ccnc3[nH]c(C4=CCN(C5CCOC5)CC4)cc23)c1CO (stereo not drawn) [Example P-21, 8-cyclopropyl-6-fluoro-4-[2-(hydroxymethyl)-3-[2-(1-tetrahydrofuran-3-yl-3,6-dihydro-2H-pyridin-4-yl)-1H-pyrrolo[2,3-b]pyridin-4-yl]phenyl]-2,3-dihydro-1,4-benzoxazepin-5-one] | 4 | 59 | 
8 | O=C(CN1CC=C(c2cc3c(-c4cccc(N5CCOc6cc(C7CC7)cc(F)c6C5=O)c4CO)ccnc3[nH]2)CC1)N1CCC1 [Example P-22, 4-[3-[2-[1-[2-(azetidin-1-yl)-2-oxo-ethyl]-3,6-dihydro-2H-pyridin-4-yl]-1H-pyrrolo[2,3-b]pyridin-4-yl]-2-(hydroxymethyl)phenyl]-8-cyclopropyl-6-fluoro-2,3-dihydro-1,4-benzoxazepin-5-one] | 1.2 | 57 | 
9 | O=C(CN1CCC1)N1CC=C(c2cc3c(-c4cccc(N5CCOc6cc(C7CC7)cc(F)c6C5=O)c4CO)ccnc3[nH]2)CC1 [Example P-28, 4-[3-[2-[1-[2-(azetidin-1-yl)acetyl]-3,6-dihydro-2H-pyridin-4-yl]-1H-pyrrolo[2,3-b]pyridin-4-yl]-2-(hydroxymethyl)phenyl]-8-cyclopropyl-6-fluoro-2,3-dihydro-1,4-benzoxazepin-5-one] | 3.1 |  | 63

The next lines start with results.

Row | IC50 [1] [nM] | IC50 (mouse splenocytes; [2]) [nM] | Compound | IC50 (mouse splenocytes; Mus musculus, read-out: Mouse spleenocyte IC50 (nM)) [nM]
10 | 1.4 | 75 | CC(C)(O)CN1CC=C(c2cc3c(-c4cccc(N5CCOc6cc(C7CC7)cc(F)c6C5=O)c4CO)ccnc3[nH]2)CC1 [Example P-23, 8-cyclopropyl-6-fluoro-4-[2-(hydroxymethyl)-3-[2-[1-(2-hydroxy-2-methyl-propyl)-3,6-dihydro-2H-pyridin-4-yl]-1H-pyrrolo[2,3-b]pyridin-4-yl]phenyl]-2,3-dihydro-1,4-benzoxazepin-5-one] | 
11 | 3.6 | 11 | CC(=O)N1CC=C(c2cc3c(-c4cccc(N5CCOc6cc(C7CC7)cc(F)c6C5=O)c4CO)ccnc3[nH]2)CC1 [Example P-24, 4-[3-[2-(1-acetyl-3,6-dihydro-2H-pyridin-4-yl)-1H-pyrrolo[2,3-b]pyridin-4-yl]-2-(hydroxymethyl)phenyl]-8-cyclopropyl-6-fluoro-2,3-dihydro-1,4-benzoxazepin-5-one] | 
12 | 3.4 | 162 | O=C1c2c(F)cc(C3CC3)cc2OCCN1c1cccc(-c2ccnc3[nH]c(C4=CCN(C5CCOCC5)CC4)cc23)c1CO [Example P-26, 8-cyclopropyl-6-fluoro-4-[2-(hydroxymethyl)-3-[2-(1-tetrahydropyran-4-yl-3,6-dihydro-2H-pyridin-4-yl)-1H-pyrrolo[2,3-b]pyridin-4-yl]phenyl]-2,3-dihydro-1,4-benzoxazepin-5-one] | 
13 | 1.2 | 50 | N#CCC(=O)N1CC=C(c2cc3c(-c4cccc(N5CCOc6cc(C7CC7)cc(F)c6C5=O)c4CO)ccnc3[nH]2)CC1 [Example P-27, 3-[4-[4-[3-(8-cyclopropyl-6-fluoro-5-oxo-2,3-dihydro-1,4-benzoxazepin-4-yl)-2-(hydroxymethyl)phenyl]-1H-pyrrolo[2,3-b]pyridin-2-yl]-3,6-dihydro-2H-pyridin-1-yl]-3-oxo-propanenitrile] | 
14 | 1.3 | 8 | CC(O)C(=O)N1CC=C(c2cc3c(-c4cccc(N5CCOc6cc(C7CC7)cc(F)c6C5=O)c4CO)ccnc3[nH]2)CC1 (stereo not drawn) [Example P-29, 8-cyclopropyl-6-fluoro-4-[2-(hydroxymethyl)-3-[2-[1-(2-hydroxypropanoyl)-3,6-dihydro-2H-pyridin-4-yl]-1H-pyrrolo[2,3-b]pyridin-4-yl]phenyl]-2,3-dihydro-1,4-benzoxazepin-5-one] | 
15 | 1 | 11 | O=C(CO)N1CC=C(c2cc3c(-c4cccc(N5CCOc6cc(C7CC7)cc(F)c6C5=O)c4CO)ccnc3[nH]2)CC1 [Example P-30, 8-cyclopropyl-6-fluoro-4-[3-[2-[1-(2-hydroxyacetyl)-3,6-dihydro-2H-pyridin-4-yl]-1H-pyrrolo[2,3-b]pyridin-4-yl]-2-(hydroxymethyl)phenyl]-2,3-dihydro-1,4-benzoxazepin-5-one] | 
16 | 5.3 | 52 | NC(=O)CN1CC=C(c2cc3c(-c4cccc(N5CCOc6cc(C7CC7)cc(F)c6C5=O)c4CO)ccnc3[nH]2)CC1 [Example P-31, 2-[4-[4-[3-(8-cyclopropyl-6-fluoro-5-oxo-2,3-dihydro-1,4-benzoxazepin-4-yl)-2-(hydroxymethyl)phenyl]-1H-pyrrolo[2,3-b]pyridin-2-yl]-3,6-dihydro-2H-pyridin-1-yl]acetamide] | 
17 | 2.2 | 75 | CC(=O)N1CC(N2CC=C(c3cc4c(-c5cccc(N6CCOc7cc(C8CC8)cc(F)c7C6=O)c5CO)ccnc4[nH]3)CC2)C1 [Example R-1, 4-[3-[2-[1-(1-acetylazetidin-3-yl)-3,6-dihydro-2H-pyridin-4-yl]-1H-pyrrolo[2,3-b]pyridin-4-yl]-2-(hydroxymethyl)phenyl]-8-cyclopropyl-6-fluoro-2,3-dihydro-1,4-benzoxazepin-5-one] | 
18 | 1.5 | 21 | CCN1CC(N2CC=C(c3cc4c(-c5cccc(N6CCOc7cc(C8CC8)cc(F)c7C6=O)c5CO)ccnc4[nH]3)CC2)C1 [Example R-2, 8-cyclopropyl-4-[3-[2-[1-(1-ethylazetidin-3-yl)-3,6-dihydro-2H-pyridin-4-yl]-1H-pyrrolo[2,3-b]pyridin-4-yl]-2-(hydroxymethyl)phenyl]-6-fluoro-2,3-dihydro-1,4-benzoxazepin-5-one] | 
19 | 22 | 85 | CCN1CC=C(c2cc3c(-c4cccc(N5CCOc6cc(C7CC7)cc(F)c6C5=O)c4CO)ccnc3[nH]2)CC1 [Example R-3, 8-cyclopropyl-4-[3-[2-(1-ethyl-3,6-dihydro-2H-pyridin-4-yl)-1H-pyrrolo[2,3-b]pyridin-4-yl]-2-(hydroxymethyl)phenyl]-6-fluoro-2,3-dihydro-1,4-benzoxazepin-5-one] | 
20 | 1.6 | 70 | CN1CC(N2CC=C(c3cc4c(-c5cccc(N6CCOc7cc(C8CC8)cc(F)c7C6=O)c5CO)ccnc4[nH]3)CC2)C1 [Example R-4, 8-cyclopropyl-6-fluoro-4-[2-(hydroxymethyl)-3-[2-[1-(1-methylazetidin-3-yl)-3,6-dihydro-2H-pyridin-4-yl]-1H-pyrrolo[2,3-b]pyridin-4-yl]phenyl]-2,3-dihydro-1,4-benzoxazepin-5-one] | 
21 | 0.75 | 51 | CCN1CC(C(=O)N2CC=C(c3cc4c(-c5cccc(N6CCOc7cc(C8CC8)cc(F)c7C6=O)c5CO)ccnc4[nH]3)CC2)C1 [Example R-5, 8-cyclopropyl-4-[3-[2-[1-(1-ethylazetidine-3-carbonyl)-3,6-dihydro-2H-pyridin-4-yl]-1H-pyrrolo[2,3-b]pyridin-4-yl]-2-(hydroxymethyl)phenyl]-6-fluoro-2,3-dihydro-1,4-benzoxazepin-5-one] | 

Reference: patent US9233983B2, “Substituted hetero-bicyclic compounds, compositions and medicinal applications thereof” (ADVINUS THERAPEUTICS LIMITED, priority 2012, dated 2016)
